From patent US7744920B2, “Use of liposomal glucocorticoids for treating inflammatory states” (Hadasit Medical Research Services & Development Limited, priority 2004, dated 2010)
Values joined by “and” are separate entries in the source; they are usually repeats but may differ in a detail not shown here. Equal values may be shown once.

What was measured:
[1] = Stability of liposomal formulation upon storage at 4° C. (gel exclusion chromatography); type: physicochemical; conditions: encapsulated in liposome, storage at 4° C. for 14 months
Protocol: The level of MPS released from SSL-MPS was determined by first separating the liposomes from free MPS using gel exclusion chromatography on Sepharose cross-linked CL-4B column using. Liposomes were eluted at the void volume and the free MPS at the later eluted fractions (FIG. 3A-3B). Stability upon storage at 4° C. and kinetic of release at 37° C. in 80% plasma was determined by gel exclusion chromatography described above. Then the different column fractions were analyzed as described above, for MPS, phospholipids and Ca in the void volume fraction.

[2] = cited from earlier work
[3] = liposomal formulation, after 24 hours, ex vivo; cited from earlier work
[4] = State of aggregation (turbidity) of MPS as function of pH; type: physicochemical
Protocol: Aggregation of MPS was determined from the change in turbidity measured as intensity of light scattered at 90° to excitation beam using a spectrofluormeter under conditions that MPS lack absorbance (excitation and emission at the same wavelength Ex=600 nm Em=600 nm). There is a large increase in the light scattered by MPS solution/dispersion due to formation of aggregates.
The intensity of scattered light (at 90° to the excitation), also defined as turbidity is proportional to concentration and to the size of the aggregates. [Zuidam, N. J. and Barenholz, Y., Biochim. Biophys. Acta 1368:115-128 (1998)]. The state of aggregation of MPS was tested in the following manner: To quartz cuvette MPS (2 ml) at concentration of ˜6.5mg/ml MPS was added. The solution was tittered with HCl (1.756 M) and light scattering using excitation and emission at (both at 600 nm with attenuation of 1%) and pH of the solution was monitored.

[5] = Partition coefficient (logD) by shake flask; type: physicochemical; conditions: FIG. 1B
Protocol: Partition coefficient (logD) of some GC derivatives (which are amphipathic weak acids) was determined by the ‘shake flask’ as described [Samuni, A. M. and Barenholz, Y., Free Radicals Biol. Med. 22:1165-1174 (1997)].

[6] = Protocol: Surface tension was measured using μtrouge S (Kibron Inc., Helsinki Finland). A solution containing GC derivative (300 μL) was placed in the well after calibration and zeroing of the sensor using pure water and air. The measurement was performed at 26° C.
[7] = Precipitation of MPS in calcium acetate solution; type: physicochemical; conditions: 600 mOsm Ca-acetate, 63° C, 5 mg/ml, 40 minutes
Protocol: To 600 mOsm Ca-acetate solution at 63° C and at different pH points MPS was added at final concentration of 5 mg/ml, then mixed solution was incubated for 40 minutes after which the solution was centrifuged and the supernatant was analyzed using […].

[8] = Loading efficiency of MPS into liposomes; type: physicochemical; conditions: HSPC:Chol:2000PEG-DSPE liposomes
Protocol: A stock solution of methylprednisolone hemisuccinate sodium salt (MPS, the GC derivative) was dissolved in 5% dextrose (pH 7.2) to a concentration of ˜9 mg/ml and added to the preformed SSL dispersion after the calcium acetate gradient was established. MPS concentration was ˜9 mg/ml and phospholipid ˜32 mM phosphate.
Loading was achieved by incubation of the components above for the desired time at 62° C. (above matrix lipid Tm). Liposomes were then cooled to 4° C. and dialyzed against 5% dextrose at 4° C. to remove acetate released during loading and to remove unloaded drug or alternatively unloaded drug was removed by the ion exchanger Dowex 1×400 mesh (Cl^− form).
Loading efficiency is the ratio between MPS/phospholipid concentrations after and before loading. The quantification of MPS was done in an HPLC apparatus as described by Anderson, and Taphouse 1981 [Anderson B. D. and Taphouse. V. J Pharm Sci, 70:181-6 (1981)], quantification of phospholipid was done by modified Bartlet procedure [Shmeeda, H., et al. In: Methods in Enzymology “Liposomes”, (Düzgünes, N., ed.), 367:272-292 (2003)].

[9] = system: Adjuvant Arthritis (AA); experiment: Treatment of Adjuvant Arthritis (AA), injections from day 10 after induction; type: in vivo, Lewis rats; conditions: 2 i.v. injections on days 10 and 14, 5 then 10 mg/kg BW (FIG. 7A)
[10] = system: Adjuvant Arthritis (AA); experiment: Effect of SSL-MPS on AA at peak of disease; type: in vivo, Lewis rats; conditions: for AA score after the second injection at day 23: SSL-MPS and free-MPS 10 mg/kg BW on days 19, 23, Remicade 5 mg/kg on day 19; for clinical score immediately after the first injection: day 19, SSL-MPS and free-MPS 10 mg/kg BW, Remicade 5 mg/kg

## C[C@H]1C[C@@H]2[C@H]([C@@H](O)C[C@@]3(C)[C@H]2CC[C@]3(O)C(=O)COC(=O)CCC(=O)O)[C@@]2(C)C=CC(=O)C=C12 [Methylprednisolone hemisuccinate]
[1]
  reduction in the GC derivative from initial concentration: less than 20%

## triamcinolone acetonide phosphate
[2]
  pKa: below 2
[3]
  acidic corticosteroid retained by the liposome: more than 75%

## C[C@H]1C[C@@H]2[C@H]([C@@H](O)C[C@@]3(C)[C@H]2CC[C@]3(O)C(=O)COC(=O)CCC(=O)[O-])[C@@]2(C)C=CC(=O)C=C12.[Na+] [MPS, methylprednisolone sodium hemisuccinate]
[4]; acidic pH
  state of aggregation (turbidity): aggregates
[4]; pH 7.2
  state of aggregation (turbidity): non-aggregated water soluble
[5]
  partition coefficient at different pH points: amphipathic substance
[6]; 26° C.
  CAC (critical association/aggregation concentration): ~5 mM
[6]; concentrations 0.785-30 mM
  surface activity: surface active at all concentrations used
[7]; pH 4.5
  % MPS precipitated: 97% and 96.6%
[7]; pH 6.2
  % MPS precipitated: 42.8%
[7]; pH 6.8
  % MPS precipitated: 44.1%
[8]; batch 04 May 2005, after dialysis
  % Encapsulation: 93.2%
[8]; batch 06 Apr. 2005, after dialysis
  % Encapsulation: 96.6%
[8]; batch 18 Jul. 2004, after dialysis
  % Encapsulation: 99.1%
[9]
  effect on AA: neither the free MPS nor the empty liposome had any effect on AA
[10]
  AA score after the second injection at day 23: minimal decline
  clinical score immediately after the first injection: very slow decline

## REMICADE: positive control, Remicade 5 mg/kg (on day 19)
[10]
  AA score after the second injection at day 23: minimal decline
  clinical score immediately after the first injection: very slow decline
